From the kinase profiling compilation of Christmann-Franck et al. (2016)

Assays:
Experiment in all cases: radiometric filter-binding kinase assay, Kinase HotSpot
Settings in all cases: compound 0.5 µM; ATP 10 µM
PIM1 (human) = PIM1 (human) (UniProt P11309)
EPHA8 (human) = EPHA8 (human) (UniProt P29322)
FYN (human) = FYN (human) (UniProt P06241)
CAMK4 (human) = CAMK4 (human) (UniProt Q16566)
MARK1 (human) = MARK1 (human) (UniProt Q9P0L2)
SLK (human) = SLK (human) (UniProt Q9H2G2)
NEK6 (human) = NEK6 (human) (UniProt Q9HC98)
INSR (human) = INSR (human) (UniProt P06213)
PRKCB1 (human) = PRKCB1 (human) (UniProt P05771)
STK24 (human) = STK24 (human) (UniProt Q9Y6E0)
TGFBR2 (human) = TGFBR2 (human) (UniProt P37173)
PRKG2 (human) = PRKG2 (human) (UniProt Q13237)
HCK (human) = HCK (human) (UniProt P08631)
MUSK (human) = MUSK (human) (UniProt O15146)
EPHA2 (human) = EPHA2 (human) (UniProt P29317)
MAP4K5 (human) = MAP4K5 (human) (UniProt Q9Y4K4)
PAK2 (human) = PAK2 (human) (UniProt Q13177)
CSNK1G2 (human) = CSNK1G2 (human) (UniProt P78368)
DYRK3 (human) = DYRK3 (human) (UniProt O43781)
NUAK2 (human) = NUAK2 (human) (UniProt Q9H093)
MAPK9 (human) = MAPK9 (human) (UniProt P45984)
MET (human) = MET (human) (UniProt P08581)
NEK1 (human) = NEK1 (human) (UniProt Q96PY6)
RIPK2 (human) = RIPK2 (human) (UniProt O43353)
FGFR1 (human) = FGFR1 (human) (UniProt P11362)
OXSR1 (human) = OXSR1 (human) (UniProt O95747)
CAMK2G (human) = CAMK2G (human) (UniProt Q13555)
TTK (human) = TTK (human) (UniProt P33981)
NEK7 (human) = NEK7 (human) (UniProt Q8TDX7)
SRPK3 (human) = SRPK3 (human) (UniProt Q9UPE1)
PTK2 (human) = PTK2 (human) (UniProt Q05397)
IKBKE (human) = IKBKE (human) (UniProt Q14164)
MATK (human) = MATK (human) (UniProt P42679)
CAMK2A (human) = CAMK2A (human) (UniProt Q9UQM7)
PRKX (human) = PRKX (human) (UniProt P51817)
NTRK3 (human) = NTRK3 (human) (UniProt Q16288)
MST4 (human) = MST4 (human) (UniProt Q9P289)
EPHA3 (human) = EPHA3 (human) (UniProt P29320)
RPS6KA6 KD1 KD2 (human) = RPS6KA6 KD1 KD2 (human) (UniProt Q9UK32)
CDC42BPB (human) = CDC42BPB (human) (UniProt Q9Y5S2)
ADRBK2 (human) = ADRBK2 (human) (UniProt P35626)
PTK6 (human) = PTK6 (human) (UniProt Q13882)

Sequence of TTK (human) (P33981 whole entry, looked up): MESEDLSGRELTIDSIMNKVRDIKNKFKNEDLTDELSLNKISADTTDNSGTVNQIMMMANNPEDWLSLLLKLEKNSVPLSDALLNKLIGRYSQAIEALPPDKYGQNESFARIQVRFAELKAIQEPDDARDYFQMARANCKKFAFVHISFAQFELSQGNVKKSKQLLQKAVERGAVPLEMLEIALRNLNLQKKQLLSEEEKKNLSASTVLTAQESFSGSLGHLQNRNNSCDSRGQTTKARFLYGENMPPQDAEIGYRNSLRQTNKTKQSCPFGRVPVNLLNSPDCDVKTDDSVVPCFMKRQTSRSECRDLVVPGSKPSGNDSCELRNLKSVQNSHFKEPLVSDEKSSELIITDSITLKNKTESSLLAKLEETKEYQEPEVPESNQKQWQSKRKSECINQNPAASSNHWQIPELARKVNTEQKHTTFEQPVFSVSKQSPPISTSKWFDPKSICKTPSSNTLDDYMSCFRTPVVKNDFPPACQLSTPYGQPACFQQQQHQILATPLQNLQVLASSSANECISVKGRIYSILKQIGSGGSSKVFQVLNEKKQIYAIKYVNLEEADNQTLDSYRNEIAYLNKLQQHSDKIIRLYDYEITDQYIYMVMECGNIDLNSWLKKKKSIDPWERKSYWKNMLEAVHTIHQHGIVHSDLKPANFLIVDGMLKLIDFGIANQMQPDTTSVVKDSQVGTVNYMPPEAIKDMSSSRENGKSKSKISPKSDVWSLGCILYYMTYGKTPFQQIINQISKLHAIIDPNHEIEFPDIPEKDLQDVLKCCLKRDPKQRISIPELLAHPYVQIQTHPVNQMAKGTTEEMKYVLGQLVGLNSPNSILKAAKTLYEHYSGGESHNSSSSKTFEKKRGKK
Sequence of CAMK2G (human) (Q13555 whole entry, looked up): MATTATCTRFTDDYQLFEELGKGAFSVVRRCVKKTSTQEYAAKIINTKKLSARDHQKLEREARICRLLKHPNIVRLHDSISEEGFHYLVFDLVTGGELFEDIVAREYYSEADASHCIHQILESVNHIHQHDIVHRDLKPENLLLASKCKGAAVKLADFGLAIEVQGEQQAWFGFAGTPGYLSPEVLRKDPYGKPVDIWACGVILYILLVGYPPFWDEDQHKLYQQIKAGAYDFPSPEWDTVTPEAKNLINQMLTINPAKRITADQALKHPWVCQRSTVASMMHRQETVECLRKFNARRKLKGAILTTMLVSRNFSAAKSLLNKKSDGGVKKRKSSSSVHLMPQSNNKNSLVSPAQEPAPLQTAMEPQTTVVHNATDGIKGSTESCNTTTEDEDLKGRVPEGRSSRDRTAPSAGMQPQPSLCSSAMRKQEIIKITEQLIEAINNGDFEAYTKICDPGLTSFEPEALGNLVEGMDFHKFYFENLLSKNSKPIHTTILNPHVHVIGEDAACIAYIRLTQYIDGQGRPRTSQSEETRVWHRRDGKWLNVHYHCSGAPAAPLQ
Sequence of INSR (human) (P06213 whole entry, looked up): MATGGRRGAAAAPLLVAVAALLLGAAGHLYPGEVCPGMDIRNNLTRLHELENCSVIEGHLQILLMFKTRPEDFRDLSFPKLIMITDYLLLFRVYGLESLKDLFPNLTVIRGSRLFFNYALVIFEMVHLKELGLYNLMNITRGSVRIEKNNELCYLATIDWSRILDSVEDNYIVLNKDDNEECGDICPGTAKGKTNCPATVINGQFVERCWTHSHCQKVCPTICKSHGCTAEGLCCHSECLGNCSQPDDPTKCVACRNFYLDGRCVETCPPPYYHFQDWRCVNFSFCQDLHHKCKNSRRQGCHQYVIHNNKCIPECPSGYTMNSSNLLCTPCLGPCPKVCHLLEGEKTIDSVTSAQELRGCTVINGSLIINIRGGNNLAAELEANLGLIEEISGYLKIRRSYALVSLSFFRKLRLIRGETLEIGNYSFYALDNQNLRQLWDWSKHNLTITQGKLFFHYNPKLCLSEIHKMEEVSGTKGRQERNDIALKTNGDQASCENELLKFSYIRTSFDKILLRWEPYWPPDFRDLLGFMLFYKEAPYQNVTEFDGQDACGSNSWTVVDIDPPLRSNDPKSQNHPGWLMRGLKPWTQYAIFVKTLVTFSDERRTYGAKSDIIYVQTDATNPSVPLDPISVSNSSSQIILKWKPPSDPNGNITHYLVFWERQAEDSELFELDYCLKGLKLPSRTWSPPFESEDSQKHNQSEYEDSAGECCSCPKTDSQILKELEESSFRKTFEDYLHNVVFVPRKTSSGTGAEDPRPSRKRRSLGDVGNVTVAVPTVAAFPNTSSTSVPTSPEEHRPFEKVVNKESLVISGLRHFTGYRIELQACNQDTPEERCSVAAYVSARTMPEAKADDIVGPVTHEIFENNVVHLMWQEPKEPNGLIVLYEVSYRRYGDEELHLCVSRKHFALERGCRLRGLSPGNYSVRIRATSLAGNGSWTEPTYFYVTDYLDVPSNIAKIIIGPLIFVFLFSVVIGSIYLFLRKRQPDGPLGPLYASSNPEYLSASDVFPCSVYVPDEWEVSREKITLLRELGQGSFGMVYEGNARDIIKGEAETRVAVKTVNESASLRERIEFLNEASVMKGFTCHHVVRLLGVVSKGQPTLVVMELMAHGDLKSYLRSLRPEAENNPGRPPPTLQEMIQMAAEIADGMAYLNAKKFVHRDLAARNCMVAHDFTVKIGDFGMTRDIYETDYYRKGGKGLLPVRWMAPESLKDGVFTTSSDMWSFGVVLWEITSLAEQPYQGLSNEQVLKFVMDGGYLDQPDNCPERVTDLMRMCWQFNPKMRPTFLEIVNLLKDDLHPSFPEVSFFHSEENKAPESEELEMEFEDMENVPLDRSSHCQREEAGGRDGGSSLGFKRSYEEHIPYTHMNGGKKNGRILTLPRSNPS
Sequence of CSNK1G2 (human) (P78368 whole entry, looked up): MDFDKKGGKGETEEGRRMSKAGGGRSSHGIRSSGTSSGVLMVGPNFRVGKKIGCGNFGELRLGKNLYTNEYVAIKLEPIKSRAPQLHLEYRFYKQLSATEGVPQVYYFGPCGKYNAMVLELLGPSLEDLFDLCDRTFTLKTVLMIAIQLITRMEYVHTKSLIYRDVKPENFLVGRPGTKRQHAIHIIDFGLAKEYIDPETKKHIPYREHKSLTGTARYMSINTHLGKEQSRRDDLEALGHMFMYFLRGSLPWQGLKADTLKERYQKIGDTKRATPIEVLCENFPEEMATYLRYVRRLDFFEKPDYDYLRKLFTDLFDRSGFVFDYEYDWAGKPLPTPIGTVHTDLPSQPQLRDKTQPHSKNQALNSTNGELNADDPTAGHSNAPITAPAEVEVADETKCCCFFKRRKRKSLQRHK
Sequence of ADRBK2 (human) (P35626 whole entry, looked up): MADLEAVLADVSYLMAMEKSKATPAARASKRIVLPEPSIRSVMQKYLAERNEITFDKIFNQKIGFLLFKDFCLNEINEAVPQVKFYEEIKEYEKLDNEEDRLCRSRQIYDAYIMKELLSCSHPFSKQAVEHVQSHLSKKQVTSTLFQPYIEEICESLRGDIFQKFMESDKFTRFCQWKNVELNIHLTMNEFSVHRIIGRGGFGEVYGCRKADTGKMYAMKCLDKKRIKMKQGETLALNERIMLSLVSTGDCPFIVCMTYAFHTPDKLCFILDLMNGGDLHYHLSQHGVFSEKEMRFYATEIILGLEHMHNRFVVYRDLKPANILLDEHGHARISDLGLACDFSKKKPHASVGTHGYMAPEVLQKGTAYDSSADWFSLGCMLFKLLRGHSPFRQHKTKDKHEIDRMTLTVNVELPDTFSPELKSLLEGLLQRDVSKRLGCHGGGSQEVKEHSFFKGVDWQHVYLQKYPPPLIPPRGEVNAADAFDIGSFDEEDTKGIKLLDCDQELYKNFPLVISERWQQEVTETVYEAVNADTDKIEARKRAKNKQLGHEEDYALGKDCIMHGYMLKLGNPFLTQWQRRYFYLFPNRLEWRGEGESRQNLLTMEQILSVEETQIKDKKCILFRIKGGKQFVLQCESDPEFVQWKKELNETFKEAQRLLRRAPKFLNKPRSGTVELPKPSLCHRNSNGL
Sequence of RPS6KA6 KD1 KD2 (human) (Q9UK32 whole entry, looked up): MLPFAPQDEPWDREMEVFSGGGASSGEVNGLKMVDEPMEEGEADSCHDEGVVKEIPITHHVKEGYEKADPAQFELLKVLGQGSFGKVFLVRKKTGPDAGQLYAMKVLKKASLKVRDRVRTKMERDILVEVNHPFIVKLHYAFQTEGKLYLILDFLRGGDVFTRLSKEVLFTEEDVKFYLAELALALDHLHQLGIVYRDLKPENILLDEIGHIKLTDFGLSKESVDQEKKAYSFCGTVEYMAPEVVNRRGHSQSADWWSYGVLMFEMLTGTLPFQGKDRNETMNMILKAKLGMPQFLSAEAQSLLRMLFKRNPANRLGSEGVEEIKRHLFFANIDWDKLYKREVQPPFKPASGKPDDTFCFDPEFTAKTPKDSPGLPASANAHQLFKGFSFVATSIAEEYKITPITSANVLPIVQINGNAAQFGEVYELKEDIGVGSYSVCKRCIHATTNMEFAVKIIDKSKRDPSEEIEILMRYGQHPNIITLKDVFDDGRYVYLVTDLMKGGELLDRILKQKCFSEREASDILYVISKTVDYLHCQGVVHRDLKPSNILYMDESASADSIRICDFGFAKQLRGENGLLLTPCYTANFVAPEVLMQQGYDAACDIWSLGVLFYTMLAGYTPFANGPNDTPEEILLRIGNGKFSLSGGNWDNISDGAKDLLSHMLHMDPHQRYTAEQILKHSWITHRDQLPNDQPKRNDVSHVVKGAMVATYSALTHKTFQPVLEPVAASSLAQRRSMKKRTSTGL
Sequence of PRKX (human) (P51817 whole entry, looked up): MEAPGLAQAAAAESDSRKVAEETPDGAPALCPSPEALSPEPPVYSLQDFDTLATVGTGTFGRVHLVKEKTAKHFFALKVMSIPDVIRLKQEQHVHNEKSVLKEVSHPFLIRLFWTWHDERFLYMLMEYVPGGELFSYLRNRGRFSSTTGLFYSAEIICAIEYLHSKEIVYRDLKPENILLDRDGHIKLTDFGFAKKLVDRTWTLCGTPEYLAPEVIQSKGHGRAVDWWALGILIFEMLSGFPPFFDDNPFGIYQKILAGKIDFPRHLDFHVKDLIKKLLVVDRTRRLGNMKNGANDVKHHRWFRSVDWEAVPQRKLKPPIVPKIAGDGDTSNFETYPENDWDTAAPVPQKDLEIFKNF

Molecule `O=C1Nc2ccc(Cl)cc2/C1=C/c1cc(Cl)c(O)c(Cl)c1` has a residual activity (PIM1 (human)) of 19.4%, a residual activity (EPHA8 (human)) of 91.5% and a residual activity (FYN (human)) of 73%. For the same molecule, the residual activity (CAMK4 (human)) was 96.8%, the residual activity (MARK1 (human)) was 89.5% and the residual activity (SLK (human)) was 95.3%. It also gave a residual activity (NEK6 (human)) of 104%, a residual activity (INSR (human)) of 99.2% and a residual activity (PRKCB1 (human)) of 97.3%. It also gave a residual activity (STK24 (human)) of 104%, a residual activity (TGFBR2 (human)) of 94.9% and a residual activity (PRKG2 (human)) of 97%. It also gave a residual activity (HCK (human)) of 83.2%, a residual activity (MUSK (human)) of 65.5% and a residual activity (EPHA2 (human)) of 95%. The residual activity (MAP4K5 (human)) was 75.9%, the residual activity (PAK2 (human)) was 96.8% and the residual activity (CSNK1G2 (human)) was 83.5%. The residual activity (DYRK3 (human)) was 91.8%, the residual activity (NUAK2 (human)) was 78.7% and the residual activity (MAPK9 (human)) was 100%. For the same molecule, the residual activity (MET (human)) was 96.4%, the residual activity (NEK1 (human)) was 81.5% and the residual activity (RIPK2 (human)) was 50.2%. For the same molecule, the residual activity (FGFR1 (human)) was 90.8%, the residual activity (OXSR1 (human)) was 91.6% and the residual activity (CAMK2G (human)) was 119%. It also gave a residual activity (TTK (human)) of 84.4%, a residual activity (NEK7 (human)) of 100% and a residual activity (SRPK3 (human)) of 88.3%. The residual activity (PTK2 (human)) was 91.5%, the residual activity (IKBKE (human)) was 94.7% and the residual activity (MATK (human)) was 82.2%. It also gave a residual activity (CAMK2A (human)) of 92.9%, a residual activity (PRKX (human)) of 92.1% and a residual activity (NTRK3 (human)) of 44.8%. It also gave a residual activity (MST4 (human)) of 101%, a residual activity (EPHA3 (human)) of 82.5% and a residual activity (RPS6KA6 KD1 KD2 (human)) of 78.5%. It also gave a residual activity (CDC42BPB (human)) of 91.4%, a residual activity (ADRBK2 (human)) of 102% and a residual activity (PTK6 (human)) of 73.8%.
